Measured values from PubChem BioAssay AID1963845 (Molecular Pharmacology Branch, DTP, NCI, 2024).

Test system: 429239-143-T-J1-PDC complex spheroid viability
Assay: Anticancer human tumor 429239-143-T-J1-PDC patient-derived small cell lung carcinoma cell line growth inhibition [POLQ]
Settings: for IC50: curve of first compound; for viability, T/C: stronger effect = lower value
Method: Multicellular complex tumor spheroid response to Polymerase (POL) inhibitors (novobiocin, ART-558, RP6685) in combination with a variety of drugs and investigational agents in selected tumor cell lines
The POL inhibitors (novobiocin, ART-558, and RP6685) were evaluated both individually and in combination with standard of care and investigational anticancer small molecules within a complex spheroid model of solid tumors. . Complex spheroids include a stromal component modeled by human endothelial cells (HUVEC) and fibroblasts modeled by human mesenchymal stem cells (MSCs). The concentration ranges selected for each drug and investigational agent were based upon clinically achievable concentrations if the clinical Cmax of the agent was known.
Compounds. The drugs and investigational agents: novobiocin (NSC847541), ART-558 (NSC835418), RP-6685 (NSC848927), peposertib (NSC802822), ceralasertib (NSC780249), elimusertib (NSC800525), camonsertib (NSC841442), AZD-1390 (NSC803789), olaparib (NSC753686), talazoparib (NSC767125), rucaparib (NSC756644), sotorasib (NSC818433), MRTX-1133 (NSC836407), SN-38 (NSC673596), topotecan (NSC609699), epotoside (NSC141540), doxorubicin (NSC123127), gemcitabine (NSC613327), 5-fluorouracil (NSC19893), paclitaxel (NSC125973), vemurafenib (NSC761431), MSA-2 (NSC828583), SN-011 (NSC837082), adavosertib (NSC754352), prexasertib (NSC758257), carboplatin (NSC241240) and oxaliplatin (NSC266046), were obtained from the National Cancer Institute (NCI) Developmental Therapeutics Program Chemical Repository (21). The FDA-approved anticancer drug set is available from the Developmental Therapeutics Program at https://dtp.cancer.gov/organization/dscb/obtaining/. […] The stock solutions were prepared in dimethyl sulfoxide (DMSO, Sigma-Aldrich, St. Louis, MO, cat. D2650), except for the platinum compounds which were prepared in saline (Quality Biological, Gaithersburg, MD, cat. 114-055-101), at 800-fold the tested concentration and stored at -70 degrees C prior to their use. All drugs and investigational agents were tested over a range starting from a high concentration at or near the clinical Cmax and decreasing in half-log increments. If the clinical Cmax for an agent had not been determined, the highest concentration tested was 10 microM, except for SN-38, which was tested at a high concentration of 1 microM.
Cell Culture. All cells were maintained in an incubator at 37 degrees C and 5% CO2 with 95% humidity. The PDC lines were cultured according to standard operating procedures established by the NCI PDMR (https://pdmr.cancer.gov). Table 3 of the manuscript, lists the cell lines along with the number of the three cell types plated to form the mct-spheroids and media for tumor cell growth. After thawing, all PDC lines, except 997537-175-T-J1-PDC and 415267-285-R-J2-PDC, were cultured in Matrigel-coated flasks prepared with a working solution of 1X Ham's F-12 nutrient mix, without supplementation (Thermo Fisher Scientific, cat. 11765054), 100 U/mL penicillin-streptomycin (Thermo Fisher Scientific, cat. 15140122), and 2.5% Matrigel (Corning Inc., Corning, NY, cat. 354248) for the first three passages. The two PDC lines 997537-175-T-J1-PDC and 415267-285-R-J2-PDC were cultured on uncoated flasks. The 857933-349-R-J2-PDC line was cultured in 6C/Colon 1B media containing advanced DMEM/F-12 (Thermo Fisher Scientific, cat. 12634028), 10 mM HEPES (Thermo Fisher Scientific, cat. 15630080), 1X GlutaMAX supplement (Thermo Fisher Scientific, cat. 35050061), 0.1 mg/mL primocin (InvivoGen, San Diego, CA, cat. ant-pm-2), 10% defined fetal bovine serum, heat inactivated (HyClone Laboratories Inc., Logan, UT, cat. SH30070.03HI), 50% L-WRN conditioned media (ATCC, cat. CRL-3276), 1.25 mM N-Acetyl-L-cysteine (Sigma-Aldrich, cat. A9165), 10 mM nicotinamide (Sigma-Aldrich, cat. N0636), 1X B-27 supplement (Thermo Fisher Scientific, cat. 17504044), 1X N-2 supplement (Thermo Fisher Scientific, cat. […]

[1] = second compound 0.0316 µM, first compound 0.0316 µM
[2] = second compound 0.0316 µM, first compound 0.1 µM
[3] = second compound 0.0316 µM, first compound 0.316 µM
[4] = second compound 0.0316 µM, first compound 1 µM
[5] = second compound 0.0316 µM, first compound 3.16 µM
[6] = second compound 0.0316 µM, first compound 10 µM
[7] = second compound 0.1 µM, first compound 0.0316 µM
[8] = second compound 0.1 µM, first compound 0.1 µM
[9] = second compound 0.1 µM, first compound 0.316 µM
[10] = second compound 0.1 µM, first compound 1 µM
[11] = second compound 0.1 µM, first compound 3.16 µM
[12] = second compound 0.1 µM, first compound 10 µM
[13] = second compound 0.316 µM, first compound 0.0316 µM
[14] = second compound 0.316 µM, first compound 0.1 µM
[15] = second compound 0.316 µM, first compound 0.316 µM
[16] = second compound 0.316 µM, first compound 1 µM
[17] = second compound 0.316 µM, first compound 3.16 µM
[18] = second compound 0.316 µM, first compound 10 µM
[19] = second compound 1 µM, first compound 0.0316 µM
[20] = second compound 1 µM, first compound 0.1 µM
[21] = second compound 1 µM, first compound 0.316 µM
[22] = second compound 1 µM, first compound 1 µM
[23] = second compound 1 µM, first compound 3.16 µM
[24] = second compound 1 µM, first compound 10 µM
[25] = second compound 3.16 µM, first compound 0.0316 µM
[26] = second compound 3.16 µM, first compound 0.1 µM
[27] = second compound 3.16 µM, first compound 0.316 µM
[28] = second compound 3.16 µM, first compound 1 µM
[29] = second compound 3.16 µM, first compound 3.16 µM
[30] = second compound 3.16 µM, first compound 10 µM
[31] = second compound 10 µM, first compound 0.0316 µM
[32] = second compound 10 µM, first compound 0.1 µM
[33] = second compound 10 µM, first compound 0.316 µM
[34] = second compound 10 µM, first compound 1 µM
[35] = second compound 10 µM, first compound 3.16 µM
[36] = second compound 10 µM, first compound 10 µM
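Further: luminescence signal used as surrogate measure of viable cells; spheroids exposed to compounds for seven days before readout.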
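Wherever viability, T/C is given: 100% = DMSO vehicle control viability as luminescence relative to vehicle.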

C#Cc1c(F)ccc2cc(O)cc(-c3ncc4c(N5CC6CCC(C5)N6)nc(OCC56CCCN5CC(F)C6)nc4c3F)c12 (centres undefined) + Cc1cccc(N(C)C(=O)C2C(O)CCN2c2nc(C)cc(C(F)(F)F)c2C#N)c1
IC50 (second compound 0.0316 µM): > 10 µM | IC50 (second compound 0.1 µM): > 10 µM | IC50 (second compound 0.316 µM): > 10 µM | IC50 (second compound 1 µM): > 10 µM | IC50 (second compound 3.16 µM): > 10 µM | IC50 (second compound 10 µM): > 10 µM | viability, T/C [1]: 91% | viability, T/C [2]: 92.4% | viability, T/C [3]: 97.1% | viability, T/C [4]: 98.9% | viability, T/C [5]: 98.9% | viability, T/C [6]: 100% | viability, T/C [7]: 117% | viability, T/C [8]: 110% | viability, T/C [9]: 89.7% | viability, T/C [10]: 101% | viability, T/C [11]: 91.1% | viability, T/C [12]: 103% | viability, T/C [13]: 99.6% | viability, T/C [14]: 100% | viability, T/C [15]: 98.5% | viability, T/C [16]: 93.8% | viability, T/C [17]: 89.2% | viability, T/C [18]: 93.5% | viability, T/C [19]: 101% | viability, T/C [20]: 108% | viability, T/C [21]: 105% | viability, T/C [22]: 92.5% | viability, T/C [23]: 89.9% | viability, T/C [24]: 92.5% | viability, T/C [25]: 90.2% | viability, T/C [26]: 88.4% | viability, T/C [27]: 106% | viability, T/C [28]: 86.3% | viability, T/C [29]: 95.4% | viability, T/C [30]: 92% | viability, T/C [31]: 100% | viability, T/C [32]: 78.3% | viability, T/C [33]: 101% | viability, T/C [34]: 86% | viability, T/C [35]: 103% | viability, T/C [36]: 100%

CC(C)n1c(=O)n(C)c2cnc3cc(F)c(-c4ccc(OCCCN5CCCCC5)nc4)cc3c21 + Cc1cccc(N(C)C(=O)C2C(O)CCN2c2nc(C)cc(C(F)(F)F)c2C#N)c1
IC50 (second compound 0.0316 µM): > 10 µM | IC50 (second compound 0.1 µM): > 10 µM | IC50 (second compound 0.316 µM): > 10 µM | IC50 (second compound 1 µM): > 10 µM | IC50 (second compound 3.16 µM): > 10 µM | IC50 (second compound 10 µM): > 10 µM | viability, T/C [1]: 104% | viability, T/C [2]: 83% | viability, T/C [3]: 92.2% | viability, T/C [4]: 78.4% | viability, T/C [5]: 78.8% | viability, T/C [6]: 72.5% | viability, T/C [7]: 90.5% | viability, T/C [8]: 90.3% | viability, T/C [9]: 91.7% | viability, T/C [10]: 86.5% | viability, T/C [11]: 77.7% | viability, T/C [12]: 75.3% | viability, T/C [13]: 85% | viability, T/C [14]: 93.9% | viability, T/C [15]: 72.3% | viability, T/C [16]: 92.6% | viability, T/C [17]: 81.8% | viability, T/C [18]: 69.7% | viability, T/C [19]: 81.8% | viability, T/C [20]: 95.7% | viability, T/C [21]: 94.2% | viability, T/C [22]: 73.4% | viability, T/C [23]: 75.6% | viability, T/C [24]: 62.6% | viability, T/C [25]: 89.2% | viability, T/C [26]: 108% | viability, T/C [27]: 88.8% | viability, T/C [28]: 87.8% | viability, T/C [29]: 77.6% | viability, T/C [30]: 64.7% | viability, T/C [31]: 83.3% | viability, T/C [32]: 88.9% | viability, T/C [33]: 83.3% | viability, T/C [34]: 89.1% | viability, T/C [35]: 83.4% | viability, T/C [36]: 53.6%
